Target: BTK kinase (Homo sapiens (Human), UniProt Q06187)
Test: BTK kinase experiment (ADP-Glo)
Assay type: biochemical
Settings: 2 μM ATP, PolyE4Y1 substrate, 30 minutes pre-incubation
Protocol: BTK kinase, PolyE4Y1 substrate and Kinase assay buffer III were purchased from Signalchem; ADP-Glo Kinase Assay was purchased from Promega; Nivo multi-label analyzer (PerkinElmer).
1× buffer preparation (which was prepared and used immediately): Kinase assay buffer III was diluted with ddH2O to 1× assay buffer for later use.
The compound to be tested was diluted with 100% DMSO to 10 μM as the first concentration, and followed by a 5-fold dilution to the 8th concentration using a multi-channel pipette, i.e., it was diluted from 10 μM to 0.128 nM.
Each gradient of the compound to be tested was diluted into a working solution with 5% DMSO using 1× buffer, 1 μL/well was added to the corresponding well, and a double-replicate well experiment was set up. 2 μL of BTK enzyme (4 ng) was add to each well and incubating at 25° C. for 30 minutes. After the incubation was completed, 2 μL of a mixture of substrate and ATP (2 μM ATP, 0.2 μg/μL PolyE4Y1) was added to each well and incubating at 25° C. for 120 minutes. At this point, the final concentration gradient of the compound was diluted from 100 nM to 0.00128 nM. After the reaction was completed, 5 μL of ADP-Glo reagent was added to each well, and the reaction continued at 25° C. for 40 minutes. After the reaction was completed, 10 μL of kinase detection reagent was added to each well. After reacting at 25° C. for 30 minutes, PerkinElmer Nivo multi-label analyzer was used to read the chemiluminescence, and the integration time was 0.5 seconds.
Raw data was converted into inhibition rate using the equation: (Sample−Min)/(Max−Min)*100%. The IC50 value could then be derived by performing a curve fit using four-parameter (which was obtained using the “log(inhibitor) vs. response-Variable slope” mode in GraphPad Prism).

Chain of BTK kinase (Q06187 whole entry): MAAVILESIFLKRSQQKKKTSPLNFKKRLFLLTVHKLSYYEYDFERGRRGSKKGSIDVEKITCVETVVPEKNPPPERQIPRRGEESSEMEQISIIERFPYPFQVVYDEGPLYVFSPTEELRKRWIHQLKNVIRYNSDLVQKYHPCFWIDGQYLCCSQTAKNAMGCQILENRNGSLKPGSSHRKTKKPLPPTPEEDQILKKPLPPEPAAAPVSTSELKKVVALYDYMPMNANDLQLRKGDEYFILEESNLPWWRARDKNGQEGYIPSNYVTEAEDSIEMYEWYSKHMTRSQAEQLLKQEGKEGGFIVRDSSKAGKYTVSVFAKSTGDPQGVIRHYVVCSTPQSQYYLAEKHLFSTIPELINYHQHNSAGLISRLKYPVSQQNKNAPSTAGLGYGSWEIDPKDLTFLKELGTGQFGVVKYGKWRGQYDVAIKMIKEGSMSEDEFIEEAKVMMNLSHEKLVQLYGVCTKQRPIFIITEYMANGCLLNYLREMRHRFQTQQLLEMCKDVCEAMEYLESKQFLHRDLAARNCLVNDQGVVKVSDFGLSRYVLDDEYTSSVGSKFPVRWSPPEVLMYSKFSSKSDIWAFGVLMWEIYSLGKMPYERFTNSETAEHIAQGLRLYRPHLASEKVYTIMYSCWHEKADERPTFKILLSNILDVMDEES

Row | IC50 [nM] | Compound
1 | 0.71 | C=CC(=O)N1CCC[C@@H](n2c(=O)n(-c3ccc(CNC(=O)c4cc(F)ccc4OC)cc3)c3c(N)nccc32)C1 [Compound 001]
2 | 2.46 | COc1cccc(Oc2ccc(-n3c(=O)n([C@@H]4CCCN(C(=O)/C=C/CF)C4)c4ccnc(N)c43)cc2)c1F [Compound 004]
3 | 2.85 | Nc1nccc2c1n(-c1ccc(Oc3c(F)cccc3F)cc1)c(=O)n2[C@@H]1CCCN(C(=O)/C=C/CF)C1 [Compound 005]
4 | 13.6 | Nc1nccc2c1n(-c1ccc(Oc3ccc(Br)cn3)cc1)c(=O)n2[C@@H]1CCCN(C(=O)/C=C/CF)C1 [Compound 006]
5 | 16 | Nc1nccc2c1n(-c1ccc(Oc3ccc(Cl)cn3)cc1)c(=O)n2[C@@H]1CCCN(C(=O)/C=C/CF)C1 [Compound 007]
6 | 36.5 | Nc1nccc2c1n(-c1ccc(Oc3ccc(F)cn3)cc1)c(=O)n2[C@@H]1CCCN(C(=O)/C=C/CF)C1 [Compound 008]
7 | 2.8 | Nc1nccc2c1n(-c1ccc(Oc3ccccc3)c(F)c1)c(=O)n2[C@@H]1CCCN(C(=O)/C=C/CF)C1 [Compound 009]
8 | 3.04 | Cc1cc(-n2c(=O)n([C@@H]3CCCN(C(=O)/C=C/CF)C3)c3ccnc(N)c32)ccc1Oc1ccccc1 [Compound 010]
9 | 1.57 | Nc1nccc2c1n(-c1ccc(Oc3ccccc3)c(Cl)c1)c(=O)n2[C@@H]1CCCN(C(=O)/C=C/CF)C1 [Compound 011]

Reference: patent US20240217973A1, “IMIDAZOPYRIDINE COMPOUNDS AND USE THEREOF” (MEDSHINE DISCOVERY INC., priority 2021, published 2024)
